Measurements taken from PubChem BioAssay AID330 (DTP/NCI, 2004).
Where “and” joins values, the source holds several entries; their conditions need not be identical. Equal entries are not always repeated. Inconclusive results and toxic doses are left out.

Test system: P388 leukemia ip, CD2F1 mice, survival T/C
Experiment: NCI In Vivo Anticancer Drug Screen. Data for tumor model P388 Leukemia (intraperitoneal) in CD2F1 (CDF1) mice
Settings: endpoint: median survival time, higher = longer survival
Procedure, shortened: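 Mice carrying the transplanted tumor received test compound or vehicle. Survival was recorded in each group, and the value is the treated-group measurement divided by that of the vehicle-treated control group.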

[1] = dose: 50.0 mg/kg/injection, schedule: Q01DX005 (ip), vehicle: Klucel (hydroxypropylcellulose) (HPC)
[2] = dose: 100.0 mg/kg/injection, schedule: Q01DX005 (ip), vehicle: Klucel (hydroxypropylcellulose) (HPC)
[3] = dose: 200.0 mg/kg/injection, schedule: Q01DX005 (ip), vehicle: Klucel (hydroxypropylcellulose) (HPC)
[4] = dose: 12.5 mg/kg/injection, schedule: Q01DX009 (ip), vehicle: Klucel (hydroxypropylcellulose) (HPC)
[5] = dose: 50.0 mg/kg/injection, schedule: Q01DX009 (ip), vehicle: Klucel (hydroxypropylcellulose) (HPC)
[6] = dose: 100.0 mg/kg/injection, schedule: Q01DX009 (ip), vehicle: Klucel (hydroxypropylcellulose) (HPC)
[7] = dose: 50.0 mg/kg/injection, schedule: Q01DX005 (ip), vehicle: saline with Tween-80
[8] = dose: 100.0 mg/kg/injection, schedule: Q01DX005 (ip), vehicle: saline with Tween-80
[9] = dose: 200.0 mg/kg/injection, schedule: Q01DX005 (ip), vehicle: saline with Tween-80
[10] = dose: 60.0 mg/kg/injection, schedule: Q01DX005 (ip), vehicle: saline with Tween-80
[11] = dose: 120.0 mg/kg/injection, schedule: Q01DX005 (ip), vehicle: saline with Tween-80
[12] = dose: 240.0 mg/kg/injection, schedule: Q01DX005 (ip), vehicle: saline with Tween-80
[13] = dose: 50.0 mg/kg/injection, schedule: Q04DX003 (ip), vehicle: saline with Tween-80
[14] = dose: 25.0 mg/kg/injection, schedule: Q01DX009 (ip), vehicle: saline
[15] = dose: 50.0 mg/kg/injection, schedule: Q01DX009 (ip), vehicle: saline
[16] = dose: 100.0 mg/kg/injection, schedule: Q01DX009 (ip), vehicle: saline
[17] = dose: 200.0 mg/kg/injection, schedule: Q01DX009 (ip), vehicle: Klucel (hydroxypropylcellulose) (HPC)
[18] = dose: 100.0 mg/kg/injection, schedule: Q04DX003 (ip), vehicle: saline with Tween-80

O=C(O)COc1ccccc1P(=O)(c1ccccc1)c1ccccc1
T/C [1]: 101 % of control | T/C [2]: 102 % of control | T/C [3]: 103 % of control

CC(=O)OCc1cc(=O)n(C)c2c3c4c(cc12)c(C)cc(=O)n4CO3
T/C [4]: 123 % of control | T/C (dose: 25.0 mg/kg/injection, schedule: Q03HX015 (ip), vehicle: Klucel (hydroxypropylcellulose) (HPC)): 173 % of control | T/C (dose: 25.0 mg/kg/injection, schedule: Q04DX002 (ip), vehicle: Klucel (hydroxypropylcellulose) (HPC)): 121 % of control | T/C (dose: 25.0 mg/kg/injection, schedule: Q06HX010 (ip), vehicle: Klucel (hydroxypropylcellulose) (HPC)): 152 % of control | T/C (dose: 50.0 mg/kg/injection, schedule: Q01DX001 (ip), vehicle: Klucel (hydroxypropylcellulose) (HPC)): 119 % of control and 124 % of control | T/C [5]: 157 % of control | T/C (dose: 50.0 mg/kg/injection, schedule: Q06HX010 (ip), vehicle: Klucel (hydroxypropylcellulose) (HPC)): 105 % of control | T/C [6]: 86 % of control | T/C (dose: 200.0 mg/kg/injection, schedule: Q01DX001 (ip), vehicle: Klucel (hydroxypropylcellulose) (HPC)): 155 % of control | T/C (dose: 200.0 mg/kg/injection, schedule: Q04DX002 (ip), vehicle: Klucel (hydroxypropylcellulose) (HPC)): 168 % of control | T/C (dose: 400.0 mg/kg/injection, schedule: Q01DX001 (ip), vehicle: Klucel (hydroxypropylcellulose) (HPC)): 157 % of control and 176 % of control | T/C (dose: 800.0 mg/kg/injection, schedule: Q01DX001 (ip), vehicle: Klucel (hydroxypropylcellulose) (HPC)): 168 % of control

CCOC(=O)C([NH-])C([NH-])C(=O)OCC.[Cl][Pt+2][Cl] (centres undefined)
T/C (dose: 12.5 mg/kg/injection, schedule: Q04DX002 (ip), vehicle: saline with Tween-80): 163 % of control | T/C (dose: 25.0 mg/kg/injection, schedule: Q04DX002 (ip), vehicle: saline with Tween-80): 164 % of control

COC(=O)C1CCCN1C(=O)c1ccccc1 (centres undefined)
T/C [7]: 114 % of control | T/C [8]: 93 % of control | T/C [9]: 100 % of control

C[Si](C)(C)CNC(=S)S
T/C [10]: 113 % of control | T/C [11]: 115 % of control | T/C [12]: 112 % of control

O=C(O)Cn1/c(=N\N=C\c2ccc([N+](=O)[O-])cc2)sc2ccccc21
T/C (dose: 100.0 mg/kg/injection, schedule: Q01DX001 (ip), vehicle: saline with Tween-80): 91 % of control | T/C (dose: 200.0 mg/kg/injection, schedule: Q01DX001 (ip), vehicle: saline with Tween-80): 89 % of control | T/C (dose: 400.0 mg/kg/injection, schedule: Q01DX001 (ip), vehicle: saline with Tween-80): 99 % of control

CN(N=O)C(N)=O
T/C (dose: 5.0 mg/kg/injection, schedule: Q04DX003 (ip), vehicle: saline with Tween-80): 104 % of control | T/C (dose: 10.0 mg/kg/injection, schedule: Q04DX003 (ip), vehicle: saline with Tween-80): 119 % of control | T/C (dose: 12.5 mg/kg/injection, schedule: Q01DX009 (ip), vehicle: saline with Tween-80): 159 % of control | T/C (dose: 25.0 mg/kg/injection, schedule: Q01DX009 (ip), vehicle: saline with Tween-80): 95 % of control | T/C (dose: 25.0 mg/kg/injection, schedule: Q04DX003 (ip), vehicle: saline with Tween-80): 177 % of control | T/C (dose: 37.5 mg/kg/injection, schedule: Q04DX003 (ip), vehicle: saline with Tween-80): 172 % of control | T/C [13]: 113 % of control

CCOC(=O)Oc1ccc[nH]c1=O
T/C [14]: 100 % of control and 96 % of control | T/C (dose: 25.0 mg/kg/injection, schedule: Q01DX009 (sc), vehicle: saline with Tween-80): 100 % of control and 109 % of control | T/C [15]: 100 % of control | T/C (dose: 50.0 mg/kg/injection, schedule: Q01DX009 (sc), vehicle: saline with Tween-80): 108 % of control and 109 % of control | T/C [16]: 108 % of control and 109 % of control | T/C (dose: 100.0 mg/kg/injection, schedule: Q01DX009 (sc), vehicle: saline with Tween-80): 106 % of control and 115 % of control | T/C (dose: 200.0 mg/kg/injection, schedule: Q01DX009 (ip), vehicle: saline): 111 % of control and 113 % of control | T/C (dose: 200.0 mg/kg/injection, schedule: Q01DX009 (sc), vehicle: saline with Tween-80): 104 % of control and 116 % of control | T/C (dose: 400.0 mg/kg/injection, schedule: Q01DX009 (ip), vehicle: saline): 117 % of control and 124 % of control | T/C (dose: 400.0 mg/kg/injection, schedule: Q01DX009 (sc), vehicle: saline with Tween-80): 101 % of control and 108 % of control | T/C (dose: 600.0 mg/kg/injection, schedule: Q01DX009 (sc), vehicle: saline with Tween-80): 107 % of control and 112 % of control

CCOc1cc2c(cc1C(C)c1ccc(OCc3ccccc3)cc1)OCO2 (centres undefined)
T/C [1]: 88 % of control | T/C [2]: 96 % of control | T/C [3]: 91 % of control

Cc1nnc(NC(=O)c2ccc(Cl)c(Cl)c2)s1
T/C [5]: 100 % of control | T/C [6]: 94 % of control | T/C [17]: 89 % of control

C[N+](C)(C)CCNP(=O)(Oc1ccccc1)c1ccccc1 (centres undefined)
T/C [7]: 103 % of control | T/C [8]: 94 % of control

CC(=O)O.CC(=O)O.[S-]CCN1CCOCC1.[Zn+2]
T/C [4]: 100 % of control | T/C (dose: 25.0 mg/kg/injection, schedule: Q01DX009 (ip), vehicle: Klucel (hydroxypropylcellulose) (HPC)): 102 % of control

Cn1ncc2c(NCCc3ccccc3)ncnc21
T/C [18]: 109 % of control

COC(=O)CCC(Cl)(Cl)Cl
T/C [5]: 102 % of control | T/C [6]: 102 % of control | T/C [17]: 100 % of control

S=C1SC2=NCCN2C2=NCCN12
T/C (dose: 11.25 mg/kg/injection, schedule: Q01DX001 (ip), vehicle: Klucel (hydroxypropylcellulose) (HPC)): 96 % of control | T/C (dose: 22.5 mg/kg/injection, schedule: Q01DX001 (ip), vehicle: Klucel (hydroxypropylcellulose) (HPC)): 102 % of control | T/C (dose: 45.0 mg/kg/injection, schedule: Q01DX001 (ip), vehicle: Klucel (hydroxypropylcellulose) (HPC)): 100 % of control

C=C=CN1C(C)=CC(=C2C(=O)c3ccccc3C2=O)C=C1C
T/C (dose: 25.0 mg/kg/injection, schedule: Q01DX005 (ip), vehicle: Klucel (hydroxypropylcellulose) (HPC)): 99 % of control and 97 % of control | T/C [1]: 104 % of control and 92 % of control and 96 % of control | T/C (dose: 60.0 mg/kg/injection, schedule: Q01DX005 (ip), vehicle: Klucel (hydroxypropylcellulose) (HPC)): 87 % of control | T/C [2]: 117 % of control and 96 % of control and 97 % of control | T/C (dose: 120.0 mg/kg/injection, schedule: Q01DX005 (ip), vehicle: Klucel (hydroxypropylcellulose) (HPC)): 97 % of control | T/C [3]: 106 % of control and 93 % of control

Cc1ccc(S(=O)(=O)/N=C2\C=CC=C\C2=C2\Sc3ccccc3N2C)cc1
T/C (dose: 100.0 mg/kg/injection, schedule: Q04DX003 (ip), vehicle: saline): 102 % of control | T/C (dose: 200.0 mg/kg/injection, schedule: Q04DX003 (ip), vehicle: saline): 99 % of control | T/C (dose: 400.0 mg/kg/injection, schedule: Q04DX003 (ip), vehicle: saline): 95 % of control

CC(=O)OCCn1c2ccccc2nc2cc3c(cc21)c(Cl)c(=O)c1ccccc13
T/C [13]: 96 % of control | T/C [18]: 100 % of control | T/C (dose: 200.0 mg/kg/injection, schedule: Q04DX003 (ip), vehicle: saline with Tween-80): 100 % of control

CCOC(=O)c1ccc(NC(=O)Nc2nnc(C)c(C)n2)cc1
T/C [5]: 92 % of control | T/C [6]: 88 % of control | T/C [17]: 88 % of control

CC(=O)C(=Cc1ccc(O)cc1)C(C)=O
T/C [7]: 100 % of control | T/C [8]: 103 % of control | T/C [9]: 103 % of control

C#CCN(C)Cc1cc(OC)c(OC)c(OC)c1
T/C (dose: 12.5 mg/kg/injection, schedule: Q01DX009 (ip), vehicle: saline): 102 % of control | T/C [14]: 94 % of control | T/C [15]: 102 % of control and 86 % of control | T/C [16]: 95 % of control and 96 % of control

CC(=O)/C(=C\c1ccc(Cl)c(Cl)c1)C(=O)C(C)CN(C)C (centres undefined)
T/C (dose: 12.5 mg/kg/injection, schedule: Q01DX005 (ip), vehicle: saline with Tween-80): 119 % of control and 120 % of control | T/C (dose: 25.0 mg/kg/injection, schedule: Q01DX005 (ip), vehicle: saline with Tween-80): 118 % of control | T/C [7]: 115 % of control and 116 % of control and 121 % of control

Cc1ccc2c(c1)SP1(c3ccccc3)(Oc3c(c4ccccc4c4ccccc34)O1)S2
T/C [10]: 118 % of control | T/C [11]: 110 % of control | T/C [12]: 114 % of control
